This assay addresses T1, pig liver glycolate oxidase (Sus scrofa, UniProt I3LVF1).
T1 construct: The enzyme was pig liver glycolate oxidase; from tissue; host or cells: pig liver
T1 sequence (I3LVF1 1-370): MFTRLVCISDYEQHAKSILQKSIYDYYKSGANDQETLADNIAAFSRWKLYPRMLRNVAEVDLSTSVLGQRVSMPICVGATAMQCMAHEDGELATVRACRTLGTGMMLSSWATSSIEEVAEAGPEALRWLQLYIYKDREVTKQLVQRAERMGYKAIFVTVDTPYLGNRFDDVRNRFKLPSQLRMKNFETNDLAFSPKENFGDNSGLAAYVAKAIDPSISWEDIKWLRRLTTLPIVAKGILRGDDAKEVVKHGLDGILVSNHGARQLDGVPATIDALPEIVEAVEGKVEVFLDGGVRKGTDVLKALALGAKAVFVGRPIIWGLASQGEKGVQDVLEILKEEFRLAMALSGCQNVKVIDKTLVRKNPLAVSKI
Nature of the assay: Glycolate oxidase enzyme inhibition (rate of reduction of sodium 2,6-dichlorophenol-indophenol by sodium glycolate, 600 nm). The format is biochemical. Particulars: 25° C., 0.10 M phosphate buffer, pH 7.0, 3 mM EDTA, 2×10^-4 M sodium glycolate, 5×10^-5 M sodium 2,6-dichlorophenol-indophenol, initial rates 1 to 3 min. Here is the method: The usefulness of the compounds of the present invention in treating urinary tract, especially renal, calcium oxalate lithiasis, was shown by the ability of these compounds to inhibit the glycolate oxidase enzyme. […] The activity of the enzyme, in turn, was measured by following the rate of reduction of sodium 2,6-dichlorophenol-indophenol by sodium glycolate in the presence of the enzyme. The enzyme was pig liver glycolate oxidase. The reaction was following spectrophotometrically at 600 nm. The assay was conducted at 25° C. in a 0.10 M phosphate buffer, pH 7.0, contining 3 mM EDTA. Initial substrate concentrations were 5×10^-5 M of sodium 2,6-dichlorophenol-indophenol and 2×10^-4 M of sodium glycolate. Reactions were initiated by the addition of enzyme. Initial rates during the period from 1 to 3 min. after the addition of enzyme were recorded on a Beckman Acta M-VI spectrophotometer. One control was run simultaneously with three test reactions, and all initial rates were adjusted to a common control rate. For further details of this procedure, see Randall et al., J. Med. Chem., 22, 6, 612 (1979).

Molecules are shown by their SMILES.

For the compound `O=C1NS(=O)(=O)C(c2csc(-c3ccc(Cl)c(Cl)c3)n2)=C1O` [5-[2-(3,4-Dichlorophenyl)thiazol-4-yl]-4-hydroxy-3(2H)-isothiazolone-1,1-dioxide], the IC50 (usually the point on the concentration scale where inhibition reaches its midpoint) amounted to 110 nM. In other words, the sub-micromolar range. For `O=C1NS(=O)(=O)C(c2nc(-c3ccc(Cl)c(Cl)c3)cs2)=C1O` [5-[4-(3,4-Dichlorophenyl)thiazol-2-yl]-4-hydroxy-3(2H)-isothiazolone-1,1-dioxide], the IC50 came to 600 nM.

(Values after patent US4431652A, “4-Hydroxy-5-substituted-3(2H)-isothiazolone-1,1-dioxide derivatives useful in treating urinary tract calcium oxalate lithiasis” (Merck & Co., Inc., priority 1980, dated 1984).)
